Here are results for seven compounds from patent publication US20110100079A1, “METHOD FOR IMPARTING STRESS TOLERANCE TO PLANT” (priority 2007, published 2011).

The subject of this test is tomato. The test can be described thus: Example 7 drying stress test (tomato), soil culture. It counts as in vivo. The following applies: 23° C., 100 ppm, 2 weeks; for Fresh weight, relative value (untreated plot = 100), Comparison 1: stress-free: tomato soil culture, EC 1, pF 1.7, two-leaf stage; for Fresh weight, relative value (untreated plot = 100), Test 1 / Fresh weight, relative value (untreated plot = 100), Test 4 / Fresh weight, relative value (untreated plot = 100), Test 2 / Fresh weight, relative value (untreated plot = 100), Test 3: tomato soil culture; for Fresh weight, relative value (untreated plot = 100), Test 1: EC 1, pF 2.8, two-leaf stage; for Fresh weight, relative value (untreated plot = 100), Test 4: EC 1, pF 3.5, five-leaf stage; for Fresh weight, relative value (untreated plot = 100), Test 2: EC 1, pF 3.5, two-leaf stage; for Fresh weight, relative value (untreated plot = 100), Test 3: EC 1, pF 4.1, two-leaf stage. Here is the method:
The environmental conditions in a climatic chamber were controlled so as to have a temperature of 23° C., an illuminance by a fluorescent light of 5000 Lux, and a daily light-dark cycle of a 16-hour light period and an 8-hour dark period. Tomatoes as prepared above were transplanted in size-3 (9 cm) pots. During the test period, the pF value was controlled by adding a suitable amount of tap water once a day so as to attain a specific drying stress value. A treatment solution containing a compound of Table 1 in a specific concentration (the remainder was water) was prepared and sprayed onto the leaves or applied to the underground portions. […] A comparative example was constructed to reflect the drying stress-free optimum cultivation conditions to investigate the plant energizing ability. […] Moreover, when the products of the present invention and the comparative products were compared, the stress tolerance imparting ability of the products of the present invention was higher in respective drying stress conditions.

Consider `O=C(O)[C@@H]1CCCN1` [Comparative product 2, Proline, reference compound], for which, under “leaf”, the “Fresh weight, relative value (untreated plot = 100), Comparison 1” value (“Fresh weight, relative value … Comparison 1” for short) stood at 101; the “Fresh weight, relative value (untreated plot = 100), Test 1” value (“Fresh weight, relative value … Test 1” for short) came out at 102; the “Fresh weight, relative value (untreated plot = 100), Test 4” value (shortened to “Fresh weight, relative value … Test 4”) is 101; the “Fresh weight, relative value (untreated plot = 100), Test 2” value (“Fresh weight, relative value … Test 2” below) was 102. Also, the “Fresh weight, relative value (untreated plot = 100), Test 3” value (from here on “Fresh weight, relative value … Test 3”) (leaf) was determined as 101. Moreover, where the note is “underground portion”, the “Fresh weight, relative value … Comparison 1” value was found to be 102; the “Fresh weight, relative value … Test 1” value is listed as 102; the “Fresh weight, relative value … Test 4” value was found to be 100; the “Fresh weight, relative value … Test 2” value is reported as 103. In addition, the “Fresh weight, relative value … Test 3” value (underground portion) is 101.

Turning to `C[N+](C)(C)CC(=O)[O-]` [Comparative product 3, Glycine betaine, reference compound], under “leaf”, the “Fresh weight, relative value … Comparison 1” value is listed as 102; the “Fresh weight, relative value … Test 1” value came to 102; the “Fresh weight, relative value … Test 4” value came to 101; the “Fresh weight, relative value … Test 2” value was found to be 103. The “Fresh weight, relative value … Test 3” value (leaf) worked out at 103.

Turning to `OC[C@H]1O[C@H](OC[C@H]2O[C@H](O[C@]3(CO)O[C@H](CO)[C@@H](O)[C@@H]3O)[C@H](O)[C@@H](O)[C@@H]2O)[C@H](O)[C@@H](O)[C@H]1O` [Comparative product 4, Raffinose, reference compound], under “leaf”, the “Fresh weight, relative value … Comparison 1” value came out at 102; the “Fresh weight, relative value … Test 1” value is 103; the “Fresh weight, relative value … Test 4” value is 101; the “Fresh weight, relative value … Test 2” value is on record as 103. Further, the “Fresh weight, relative value … Test 3” value (leaf) is listed as 103.

Take “Alkyl (C10) polyglycoside [Product of present invention 15]”: where the note is “leaf”, the “Fresh weight, relative value … Comparison 1” value turned out to be 101; the “Fresh weight, relative value … Test 1” value is 121; the “Fresh weight, relative value … Test 4” value turned out to be 139; the “Fresh weight, relative value … Test 2” value came to 147. The “Fresh weight, relative value … Test 3” value (leaf) worked out at 126.

For the compound “POE (20) sorbitan monolauric acid ester [Product of present invention 12]”, where the note is “leaf”, the “Fresh weight, relative value … Comparison 1” value stood at 101; the “Fresh weight, relative value … Test 1” value is listed as 130; the “Fresh weight, relative value … Test 4” value is given as 148; the “Fresh weight, relative value … Test 2” value came out at 162. In addition, the “Fresh weight, relative value … Test 3” value (leaf) turned out to be 135.

Take “POE (20) sorbitan monooleic acid ester [Product of present invention 1]”: for the setting “underground portion”, the “Fresh weight, relative value … Comparison 1” value is given as 103; the “Fresh weight, relative value … Test 1” value came to 134; the “Fresh weight, relative value … Test 4” value turned out to be 160; the “Fresh weight, relative value … Test 2” value is recorded as 188. The “Fresh weight, relative value … Test 3” value (underground portion) is listed as 145.

In the case of “Sucrose fatty acid ester (C18, HLB = 15) [Product of present invention 20]”, under “leaf”, the “Fresh weight, relative value … Comparison 1” value came to 103; the “Fresh weight, relative value … Test 1” value came to 119; the “Fresh weight, relative value … Test 4” value was found to be 136; the “Fresh weight, relative value … Test 2” value was determined as 139. The “Fresh weight, relative value … Test 3” value (leaf) came to 124.
